Earlier results in patent publication US4746734A, “Partially methylated cyclodextrins and process for producing the same” (Sanraku Incorporated, priority 1985, dated 1988).

Conditions: background statement

solubility in water (description of prior art): particularly low in water solubility
SMILES: OC[C@H]1O[C@@H]2O[C@H]3[C@H](O)[C@@H](O)[C@@H](O[C@H]4[C@H](O)[C@@H](O)[C@@H](O[C@H]5[C@H](O)[C@@H](O)[C@@H](O[C@H]6[C@H](O)[C@@H](O)[C@@H](O[C@H]7[C@H](O)[C@@H](O)[C@@H](O[C@H]8[C@H](O)[C@@H](O)[C@@H](O[C@H]1[C@H](O)[C@H]2O)O[C@@H]8CO)O[C@@H]7CO)O[C@@H]6CO)O[C@@H]5CO)O[C@@H]4CO)O[C@@H]3CO [β-CD]
